pIC50: −log10 of the molar value.
Legend:
Assay type in all cases: cell-based
[1] = tested on: malignant human melanoma cell line G361; assay: Calcein AM cytotoxicity assay, G 361; conditions: G 361; exposure 72 h (b71 says 96 h); mean ± SD; read-out: IC50 assessed by Calcein AM assay of surviving cells
[2] = tested on: MCF-7, LNCaP and DU-145 cancer cell lines; assay: MTT cytotoxicity test, summary over cell lines; conditions: over cell lines except MDA-MB-468; 24 h; read-out: IC50 value around which the cell lines move (MTT)
Protocol: Stock solutions ([…]) were prepared by dissolving relevant quantity of substance in DMSO cultivation media (DMEM, RPMI 1640, F-12 medium), fetal bovine serum (FBS), L-glutamine, penicillin, and streptomycin were purchased from Sigma (MO, USA). 3-(4,5-Dimethylthiazol-2-yl)-2,5-diphenyltetrazolium bromide (MTT) was from Serva Electrophoresis (Heidelberg, Germany). Monoclonal mouse anti-bromodeoxyuridine (BrdU) intibody was obtained from DakoCytomation (Glostrup, Denmark). Calcein AM was obtained from PAA Laboratories GmbH (Pasching, Austria). […]
Cell viability in this case was assessed by 3-(4,5-dimethylthiozol-2-yl)-2,5-diphenyltetrazolium bromide (MTT) to determine IC50 concentrations of studied agents as described previously. […] The absorbance was read using an ELISA reader Labsystem Multiscan RC at 570 nm. […]

MCF-7 cells = assay: Cell cycle distribution by flow cytometry, MCF-7; conditions: IC50, 24 h; for Cell cycle distribution S: control 14%; for Apoptosis subG1 fraction: control 17%; for Cell cycle distribution G2/M: control 26%; for Cell cycle distribution G1: control 60%
From the text: In the MCF-7 breast cancer cell line that has been the most widely studied experimental cell system, the typical growth inhibitory response to antiestrogens is decrease in the proportion of cells synthesising DNA (S phase) after antiestrogen treatment. This decrease in S phase coincides with an increase in the proportion of cells in G0/G1 phase. The activity of the androgen receptor (AR) is also regulated by alterations in cell signaling. There has been reported ligand independent activation of AR in prostate cancer cells by different growth factors. As the AR can be activated in the absence of hormone, it appears that the conditions may be more restricted than those observed for ER. Use of physiologic doses of ligand (dihydrotestosterone, DHT) is of importance as the LNCaP cells proliferate only at DHT concentration of 10^−9 M or lower. […] In contrast to proliferation, transactivation of AR specific target genes (e.g. PSA) continues to increase with DHT doses of 10^−10 M and higher. It might be accepted for estrogen or androgen receptors as stronger cytotoxic activities of brassinosteroids 9 or 6 on hormone-sensitive (MCF-7, LNCaP) compared to hormone-insensitive (MDA-MB-468, DU-145) cell lines were found. Therefore we explored the possibility of cell cycle perturbation by BRs in different cancer cell lines. Flow cytometry was used to evaluate the number of cells in the particular phases of the cell cycle, including subG1 peak detection. Control and treated cells were washed twice with cold PBS and centrifuged at 360×g for 10 min at 4° C., and fixed with chilled ethanol (70%; v/v) by low-speeded vortexing. For detection of DNA content analysis, propidium iodide staining was used. The cells were analyzed using a FACSCalibur flow cytometer (BD Biosciences, San Jose, Calif.).
Flow-cytometric detection of apoptosis. Several studies have declared that the induction of apoptosis may be cell cycle-dependent. Therefore, in our next series of experiments, we tested if brassinosteroids 9 or 6 cause apoptosis of the breast and prostate cancer cells via cell cycle blockage. From this reason we carried out DNA cell cycle analysis by flow cytometry based on detection of endonucleolytic DNA degradation that results in extraction of low molecular weight DNA from the cells. […] The subG1 peak containing apoptotic bodies was however not observed in MCF-7 cells.

SMILES	pIC50 [1]	pIC50 [2]	Cell cycle distribution S (MCF-7 cells)	Apoptosis subG1 fraction (MCF-7 cells)	Cell cycle distribution G2/M (MCF-7 cells)	Cell cycle distribution G1 (MCF-7 cells)
CC[C@@H](C(C)C)[C@@H](O)[C@H](O)[C@@H](C)[C@H]1CC[C@H]2[C@@H]3CC(=O)[C@H]4C[C@H](O)[C@H](O)C[C@]4(C)[C@H]3CC[C@]12C [Brassinosteroid 9, 28-Homocastasterone]	< 4.30	~4.36	11%	15%	9%	80%
CC(C)[C@@H](C)[C@@H](O)[C@H](O)[C@@H](C)[C@H]1CC[C@H]2[C@@H]3COC(=O)[C@H]4C[C@H](O)[C@H](O)C[C@]4(C)[C@H]3CC[C@]12C [Brassinosteroid 6, 24-Epibrassinolide]	< 4.30	~4.21	7%	13%	12%	81%
